Active and inactive are the calls of the source. No cut-off for these calls is given here.
What was measured:
[1] = biological target: T1, Cannabinoid receptor 2 (Homo sapiens, UniProt P34972); experiment: Displacement of [3H]-CP55940 from human CB2 receptor expressed in HEK293 cell membrane assessed as inhibition constant incubated for 90 mins by radioligand competition binding assay; type: cell membranes
[2] = biological target: T2, Cannabinoid receptor 1 (Homo sapiens, UniProt P21554); experiment: Displacement of [3H]-CP55940 from human CB1 receptor expressed in HEK293 cell membrane at 1 uM incubated for 60 mins by radioligand competition binding assay relative to control; type: cell membranes
[3] = biological target: T2, Cannabinoid receptor 1; experiment: Displacement of [3H]-CP55940 from human CB1 receptor expressed in HEK293 cell membrane assessed as inhibition constant incubated for 60 mins by radioligand competition binding assay; type: cell membranes
[4] = biological target: T1, Cannabinoid receptor 2; experiment: Agonist activity at human CB2 receptor expressed in CHO-K1 cells assessed as inhibition of NKH-477 induced cAMP production incubated for 30 mins by luminescence based analysis; type: functional, cell-based
[5] = biological target: T1, Cannabinoid receptor 2; experiment: Agonist activity at human CB2 receptor expressed in CHO-K1 cells assessed as inhibition of NKH-477 induced cAMP production by measuring maximal efficacy incubated for 30 mins by luminescence based analysis relative to control; type: functional, cell-based; conditions: filed as agonist
[6] = biological target: T1, Cannabinoid receptor 2; experiment: Displacement of [3H]-CP55940 from human CB2 receptor expressed in HEK293 cell membrane at 1 uM incubated for 90 mins by radioligand competition binding assay relative to control; type: cell membranes
[7] = test system: THP-1; experiment: Antiinflammatory activity against LPS-activated human THP-1 monocytes assessed as decrease in IFN-gamma production at 1 to 10 uM incubated for 24 hrs by ELISA coupled qRT-PCR analysis; type: functional, cell-based; conditions: dose 1-10 µM
[8] = test system: THP-1; experiment: Antiinflammatory activity in PMA-differentiated human THP-1 macrophages assessed as decrease in IFN-gamma production at 1 to 10 uM incubated for 24 hrs by ELISA coupled qRT-PCR analysis; type: functional, cell-based; conditions: dose 1-10 µM
[9] = test system: THP-1; experiment: Antiinflammatory activity against LPS-activated human THP-1 monocytes assessed as increase in IL-4 production at 1 to 10 uM incubated for 24 hrs by ELISA coupled qRT-PCR analysis; type: functional, cell-based; conditions: dose 1-10 µM
[10] = test system: THP-1; experiment: Antiinflammatory activity in PMA-differentiated human THP-1 macrophages assessed as decrease in IL-6 production at 1 to 10 uM incubated for 24 hrs by ELISA coupled qRT-PCR analysis; type: functional, cell-based; conditions: dose 1-10 µM
[11] = test system: THP-1; experiment: Antiinflammatory activity against LPS-activated PMA-differentiated human THP-1 macrophages assessed as decrease in IL-1beta production at 1 to 10 uM incubated for 24 hrs by ELISA coupled qRT-PCR analysis; type: functional, cell-based; conditions: dose 1-10 µM
[12] = test system: THP-1; experiment: Antiinflammatory activity against LPS-activated human THP-1 monocytes assessed as decrease in IL-1beta production at 1 to 10 uM incubated for 24 hrs by ELISA coupled qRT-PCR analysis; type: functional, cell-based; conditions: dose 1-10 µM
[13] = test system: THP-1; experiment: Antiinflammatory activity in human THP-1 monocytes assessed as increase in IL-10 production at 1 to 10 uM incubated for 24 hrs by ELISA coupled qRT-PCR analysis; type: functional, cell-based; conditions: dose 1-10 µM
[14] = test system: THP-1; experiment: Antiinflammatory activity in human THP-1 monocytes assessed as decrease in IFN-gamma production at 1 to 10 uM incubated for 24 hrs by ELISA coupled qRT-PCR analysis; type: functional, cell-based; conditions: dose 1-10 µM
[15] = test system: THP-1; experiment: Antiinflammatory activity in PMA-differentiated human THP-1 macrophages assessed as decrease in IL-1beta production at 1 to 10 uM incubated for 24 hrs by ELISA coupled qRT-PCR analysis; type: functional, cell-based; conditions: dose 1-10 µM
[16] = test system: THP-1; experiment: Antiinflammatory activity in human THP-1 monocytes assessed as decrease in IL-6 production at 1 to 10 uM incubated for 24 hrs by ELISA coupled qRT-PCR analysis; type: functional, cell-based; conditions: dose 1-10 µM
[17] = test system: THP-1; experiment: Antiinflammatory activity in human THP-1 monocytes assessed as decrease in IL-1beta production at 1 to 10 uM incubated for 24 hrs by ELISA coupled qRT-PCR analysis; type: functional, cell-based; conditions: dose 1-10 µM
[18] = test system: THP-1; experiment: Antiinflammatory activity in PMA-differentiated human THP-1 macrophages assessed as increase in IL-10 production at 1 to 10 uM incubated for 24 hrs by ELISA coupled qRT-PCR analysis; type: functional, cell-based; conditions: dose 1-10 µM
[19] = test system: THP-1; experiment: Antiinflammatory activity against LPS-activated human THP-1 monocytes assessed as decrease in IL-6 production at 1 to 10 uM incubated for 24 hrs by ELISA coupled qRT-PCR analysis; type: functional, cell-based; conditions: dose 1-10 µM
[20] = test system: THP-1; experiment: Antiinflammatory activity against LPS-activated PMA-differentiated human THP-1 macrophages assessed as decrease in IFN-gamma production at 1 to 10 uM incubated for 24 hrs by ELISA coupled qRT-PCR analysis; type: functional, cell-based; conditions: dose 1-10 µM
[21] = test system: THP-1; experiment: Antiinflammatory activity in human THP-1 monocytes assessed as increase in IL-4 production at 1 to 10 uM incubated for 24 hrs by ELISA coupled qRT-PCR analysis; type: functional, cell-based; conditions: dose 1-10 µM
[22] = test system: THP-1; experiment: Antiinflammatory activity against LPS-activated PMA-differentiated human THP-1 macrophages assessed as increase in IL-4 production at 10 uM incubated for 24 hrs by ELISA coupled qRT-PCR analysis; type: functional, cell-based
[23] = test system: THP-1; experiment: Antiinflammatory activity against LPS-activated PMA-differentiated human THP-1 macrophages assessed as decrease in TNF-alpha production at 1 to 10 uM incubated for 24 hrs by ELISA coupled qRT-PCR analysis; type: functional, cell-based; conditions: dose 1-10 µM
[24] = biological target: T1, Cannabinoid receptor 2; experiment: Antagonist activity at human CB2 receptor expressed in CHO-K1 cells assessed as reversal of JWH-133 mediated cAMP reduction preincubated with compound for 15 mins followed by JWH-133 addition and measured after 30 mins in the presence of NKH-477 by luminescence based analysis; type: functional, cell-based; conditions: filed as antagonist, time 45.0 min
[25] = test system: THP-1; experiment: Antiinflammatory activity against LPS-activated human THP-1 monocytes assessed as decrease in TNF-alpha production at 1 to 10 uM incubated for 24 hrs by ELISA coupled qRT-PCR analysis; type: functional, cell-based; conditions: dose 1-10 µM
[26] = test system: THP-1; experiment: Antiinflammatory activity against LPS-activated human THP-1 monocytes assessed as increase in IL-10 production at 1 to 10 uM incubated for 24 hrs by ELISA coupled qRT-PCR analysis; type: functional, cell-based; conditions: dose 1-10 µM
[27] = test system: THP-1; experiment: Antiinflammatory activity in human THP-1 monocytes assessed as decrease in TNF-alpha production at 1 to 10 uM incubated for 24 hrs by ELISA coupled qRT-PCR analysis; type: functional, cell-based; conditions: dose 1-10 µM
[28] = test system: THP-1; experiment: Antiinflammatory activity against LPS-activated PMA-differentiated human THP-1 macrophages assessed as decrease in IL-6 production at 1 to 10 uM incubated for 24 hrs by ELISA coupled qRT-PCR analysis; type: functional, cell-based; conditions: dose 1-10 µM
[29] = test system: THP-1; experiment: Antiinflammatory activity against LPS-activated PMA-differentiated human THP-1 macrophages assessed as increase in IL-10 production at 10 uM incubated for 24 hrs by ELISA coupled qRT-PCR analysis; type: functional, cell-based
[30] = test system: THP-1; experiment: Antiinflammatory activity in PMA-differentiated human THP-1 macrophages assessed as increase in IL-4 production at 1 to 10 uM incubated for 24 hrs by ELISA coupled qRT-PCR analysis; type: functional, cell-based; conditions: dose 1-10 µM
[31] = test system: THP-1; experiment: Antiinflammatory activity in PMA-differentiated human THP-1 macrophages assessed as decrease in TNF-alpha production at 1 to 10 uM incubated for 24 hrs by ELISA coupled qRT-PCR analysis; type: functional, cell-based; conditions: dose 1-10 µM

T1 sequence (P34972 whole entry): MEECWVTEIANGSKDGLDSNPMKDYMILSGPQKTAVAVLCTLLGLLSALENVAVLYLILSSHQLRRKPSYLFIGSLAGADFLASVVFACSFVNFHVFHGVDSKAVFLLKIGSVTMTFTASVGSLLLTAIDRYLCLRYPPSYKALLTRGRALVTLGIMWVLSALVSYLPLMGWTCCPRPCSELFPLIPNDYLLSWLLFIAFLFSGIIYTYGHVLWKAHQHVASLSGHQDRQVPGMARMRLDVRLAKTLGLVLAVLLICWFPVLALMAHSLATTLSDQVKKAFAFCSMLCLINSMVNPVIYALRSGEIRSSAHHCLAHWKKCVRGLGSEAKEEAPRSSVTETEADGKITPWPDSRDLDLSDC
T2 sequence (P21554 whole entry): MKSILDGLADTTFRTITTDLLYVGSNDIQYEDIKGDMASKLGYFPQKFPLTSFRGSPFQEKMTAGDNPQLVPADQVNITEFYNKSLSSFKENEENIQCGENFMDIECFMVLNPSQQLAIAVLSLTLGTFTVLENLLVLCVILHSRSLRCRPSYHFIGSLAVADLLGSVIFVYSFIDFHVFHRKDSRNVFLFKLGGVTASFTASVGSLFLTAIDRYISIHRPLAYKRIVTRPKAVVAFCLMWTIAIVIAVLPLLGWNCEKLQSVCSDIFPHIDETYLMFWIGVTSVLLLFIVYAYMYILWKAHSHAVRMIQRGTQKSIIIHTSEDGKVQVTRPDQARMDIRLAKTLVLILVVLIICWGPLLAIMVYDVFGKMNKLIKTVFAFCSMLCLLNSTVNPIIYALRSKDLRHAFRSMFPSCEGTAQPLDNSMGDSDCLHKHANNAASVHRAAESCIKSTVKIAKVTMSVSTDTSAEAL

`CCCCCCCNc1ccccc1C(=O)NC12CC3CC(CC(C3)C1)C2` gave a Ki [1] of 923 nM and an Activity [2] of 4%.
`CCCCCNc1ccc(-c2ccc(F)cc2)cc1C(=O)NC12CC3CC(CC(C3)C1)C2` showed a Ki [1] of 89.5 nM and a Ki [3] of 754 nM.
For `CCCCCNc1ccc(-c2cccc(F)c2)cc1C(=O)NC12CC3CC(CC(C3)C1)C2`, the Ki [1] was 71 nM, the Activity ([2]; filed as agonist) was 42% and the EC50 [4] was 5250 nM. For the same molecule, the Emax [5] was 86.6%.
`CCCCCCNc1ccccc1C(=O)NC12CC3CC(CC(C3)C1)C2` showed a Ki [1] of 485 nM and an Activity [2] of 6%.
In the case of `CCCCCNc1ccc(-c2cccc(C(N)=O)c2)cc1C(=O)NC12CC3CC(CC(C3)C1)C2`, the Activity [6] is reported as 21% and the Activity [2] is reported as 3%.
`CCCCCNc1ccc(-c2cccs2)cc1C(=O)NC12CC3CC(CC(C3)C1)C2` showed a Ki [1] of 2600 nM and an Activity [2] of 15%.
`CCCCCNc1ccc(-c2cccnc2)cc1C(=O)NC12CC3CC(CC(C3)C1)C2` was tested, and the Ki [1] was 330 nM, the Activity [2] was 1% and the EC50 [4] was 10400 nM. The Emax [5] was 98.1%.
Molecule `CCCCCCNc1ccc(-c2cccnc2)cc1C(=O)NC12CC3CC(CC(C3)C1)C2` has a Ki [1] of 6500 nM and an Activity [2] of 9%.
Molecule `CCCCCNc1ccc(-c2ccc(OC)cc2)cc1C(=O)NC12CC3CC(CC(C3)C1)C2` has a Ki [1] of 148 nM and an Activity [2] of 23%.
`CCCCCCNc1ccc(-c2cccs2)cc1C(=O)NC12CC3CC(CC(C3)C1)C2` was tested, and the Ki [1] was 465 nM and the Activity [2] was 32%.
`CCCC(C)(C)c1ccc2c(c1)OC(C)(C)[C@@H]1CC=C(C)C[C@@H]21` showed an EC50 [4] of 169000 nM.
For `Cc1c(C(=O)NC23CC4CC(CC(C4)C2)C3)nn(CCCCCO)c1-c1ccccc1`, the Ki ([1]; hek293) was 0.08 nM.
Molecule `COc1ccc2c(c1)c(CCN1CCOCC1)c(C)n2C(=O)c1cccc(Cl)c1Cl` has a Ki [1] of 6.9 nM.
In the case of `CCCCCCCNc1ccc(Br)cc1C(=O)NC12CC3CC(CC(C3)C1)C2`, the Activity [6] is reported as 16% and the Activity [2] is reported as 8%.
In the case of `CCCCCNc1ccc(-c2ccccc2)cc1C(=O)NC1CCCCC1`, the Activity [6] is reported as 21% and the Activity [2] is reported as 3%.
`CCCCCNc1ccc(-c2cccc(C)c2)cc1C(=O)NC12CC3CC(CC(C3)C1)C2` gave an Activity [6] of 37% and an Activity [2] of 14%.
In the case of `CCCCCNc1ccc(-c2ccc(C)cc2)cc1C(=O)NC12CC3CC(CC(C3)C1)C2`, the Ki [1] is reported as 129 nM and the Activity [2] is reported as 16%.
For `CCCCCNc1ccc(-c2ccc(C(N)=O)cc2)cc1C(=O)NC12CC3CC(CC(C3)C1)C2`, the Activity [6] was 19% and the Activity [2] was 14%.
`CCCCCCNc1ccc(Br)cc1C(=O)NC12CC3CC(CC(C3)C1)C2` gave an Activity [6] of 26% and an Activity [2] of 17%.
`CCCCCNc1ccc(-c2ccc(C(=O)OC)cc2)cc1C(=O)NC12CC3CC(CC(C3)C1)C2` showed an Activity [6] of 12% and an Activity [2] of 6%.
Work on `CCCCCCCNc1ccc(-c2ccccc2)cc1C(=O)NC12CC3CC(CC(C3)C1)C2` yielded a Ki [1] of 1180 nM and an Activity [2] of 22%.
With `CCCCCCCNc1ccc(-c2cccnc2)cc1C(=O)NC12CC3CC(CC(C3)C1)C2` the Activity [6] was 31% and the Activity [2] was 16%.
`CCCCCCNc1ccc(-c2ccccc2)cc1C(=O)NC12CC3CC(CC(C3)C1)C2` gave a Ki [1] of 209 nM and an Activity [2] of 35%.
In the case of `CCCCCCCNc1ccc(-c2cccs2)cc1C(=O)NC12CC3CC(CC(C3)C1)C2`, the Ki [1] is reported as 160 nM, the Activity [2] is reported as 7% and the EC50 [4] is reported as 5600 nM. It also gave an Emax [5] of 75%.
`CCCCCNc1ccc(-c2ccccc2)cc1C(=O)NC12CC3CC(CC(C3)C1)C2` was tested, and the Ki [1] was 47.8 nM, the Activity [7] was “inactive” and the Activity [8] was “inactive”. For the same molecule, the Activity [9] was “inactive”, the Activity [10] was “inactive” and the Activity [11] was “inactive”. For the same molecule, the Activity [12] was “inactive”, the Activity [2] was 5% and the Activity [13] was “inactive”. For the same molecule, the Activity [14] was “inactive”, the Activity [15] was “inactive” and the Activity [16] was “inactive”. For the same molecule, the Activity [17] was “inactive”, the Activity [18] was “inactive” and the Activity [19] was “inactive”. The Activity [20] was “inactive”, the Activity [21] was “inactive” and the Activity [22] was “inactive”. For the same molecule, the Activity [23] was “inactive”, the Activity [24] was “Active” and the Activity [25] was “inactive”. The Activity [26] was “inactive”, the Activity [27] was “inactive” and the Activity [28] was “inactive”. For the same molecule, the Activity [29] was “inactive”, the Activity [30] was “inactive” and the Activity [31] was “inactive”.
With `CCCCCNc1ccc(-c2cccc(OC)c2)cc1C(=O)NC12CC3CC(CC(C3)C1)C2` the Activity [6] was 25% and the Activity [2] was 28%.
For `CCCCCNc1ccc(Br)cc1C(=O)NC12CC3CC(CC(C3)C1)C2`, the Ki [1] was 456 nM and the Activity [2] was 5%.

— ChEMBL document CHEMBL5321210, “N-adamantyl-anthranil amide derivatives: New selective ligands for the cannabinoid receptor subtype 2 (CB2R)” (Eur J Med Chem, 2023)
